From article PMC5701173, “An activity-dependent proximity ligation platform for spatially resolved quantification of active enzymes in single cells” (Nature Communications, 2017)

Molecular target: T1, Neutral cholesterol ester hydrolase 1 (NCEH1) (Homo sapiens, UniProt Q6PIU2)
T1 construct: endogenous full-length enzyme in live PC3 cells
T1 sequence (Q6PIU2 1-408): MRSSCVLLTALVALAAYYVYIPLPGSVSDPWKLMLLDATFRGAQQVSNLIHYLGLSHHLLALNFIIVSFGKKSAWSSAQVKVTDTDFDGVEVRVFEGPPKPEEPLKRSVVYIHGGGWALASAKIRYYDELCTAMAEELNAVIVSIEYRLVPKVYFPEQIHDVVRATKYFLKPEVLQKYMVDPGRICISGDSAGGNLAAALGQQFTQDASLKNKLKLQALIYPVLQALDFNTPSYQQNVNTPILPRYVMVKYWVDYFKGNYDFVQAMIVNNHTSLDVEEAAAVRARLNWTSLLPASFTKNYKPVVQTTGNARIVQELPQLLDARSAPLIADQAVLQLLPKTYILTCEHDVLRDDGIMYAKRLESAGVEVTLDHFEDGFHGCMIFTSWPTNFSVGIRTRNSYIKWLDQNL
Experiment: competitive activity-dependent proximity ligation (FP-Bio probe) in live cells; gel-based ABPP in SKOV3
Format: cell-based

IC50: 6 nM
Compound: CC(C)c1ccccc1OC(=O)NCCc1ccc2ccccc2c1 [JW480]
